Measured values taken from ChEMBL document CHEMBL3860036, “Sesquiterpene Hydroquinones with Protein Tyrosine Phosphatase 1B Inhibitory Activities from a Dysidea sp. Marine Sponge Collected in Okinawa” (J Nat Prod, 2016).

How the values were obtained:
[1] = molecular target: T1, Tyrosine-protein phosphatase non-receptor type 1 (Homo sapiens) (UniProt P18031); assay: Inhibition of recombinant human PTP1B (1 to 322 residues) expressed in Escherichia coli at 31 uM preincubated for 10 mins followed by pNPP substrate addition measured after 30 mins relative to control
T1 sequence (whole entry): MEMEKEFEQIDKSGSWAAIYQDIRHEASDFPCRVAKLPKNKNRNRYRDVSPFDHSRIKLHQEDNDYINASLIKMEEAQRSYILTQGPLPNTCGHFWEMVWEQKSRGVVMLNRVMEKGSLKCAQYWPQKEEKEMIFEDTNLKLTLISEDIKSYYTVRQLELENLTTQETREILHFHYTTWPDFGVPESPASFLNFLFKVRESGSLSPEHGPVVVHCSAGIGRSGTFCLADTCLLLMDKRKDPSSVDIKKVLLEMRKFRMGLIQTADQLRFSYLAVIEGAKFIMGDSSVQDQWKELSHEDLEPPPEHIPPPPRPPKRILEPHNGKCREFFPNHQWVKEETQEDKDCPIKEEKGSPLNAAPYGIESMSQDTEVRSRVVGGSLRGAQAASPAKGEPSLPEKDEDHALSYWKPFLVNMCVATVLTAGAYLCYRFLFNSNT

[2] = molecular target: T2, Tyrosine-protein phosphatase non-receptor type 1 (Homo sapiens, UniProt P18031)
T2 sequence (P18031 whole entry): T1 sequence (whole entry)
Description: Inhibition of recombinant human PTP1B (1 to 322 residues) expressed in Escherichia coli using pNPP as substrate preincubated for 10 mins followed by substrate addition measured after 30 mins

[3] = molecular target: T1, Tyrosine-protein phosphatase non-receptor type 1 (Homo sapiens); conditions: 25 uM
Description: Inhibition of recombinant human PTP1B (1 to 322 residues) expressed in Escherichia coli at 25 uM preincubated for 10 mins followed by pNPP substrate addition measured after 30 mins relative to control

[4] = molecular target: T1, Tyrosine-protein phosphatase non-receptor type 1 (Homo sapiens); conditions: 32 uM
Description: Inhibition of recombinant human PTP1B (1 to 322 residues) expressed in Escherichia coli at 32 uM preincubated for 10 mins followed by pNPP substrate addition measured after 30 mins relative to control

Row | Compound | IC50 [2] [µM] | other results
1 | COc1ccc(O)c(C[C@]2(C)[C@@H](C)CC[C@]3(C)C(C)=CCC[C@@H]23)c1 |  | inhibition [1]: 0%
2 | C=C1CCC[C@H]2[C@](C)(Cc3cc(O)ccc3OC(C)=O)[C@@H](C)CC[C@]12C | 6.5 | 
3 | CC1=CCC[C@H]2[C@]3(C)Cc4cc(O)ccc4O[C@]3(C)CC[C@]12C | 11 | 
4 | CC(=O)Oc1ccc(OC(C)=O)c(C[C@]2(C)[C@@H](C)CC[C@]3(C)C(C)=CCC[C@@H]23)c1 |  | inhibition [3]: 5%
5 | CC1=CCC[C@H]2[C@](C)(Cc3cc(O)ccc3O)[C@@H](C)CC[C@]12C [AVAROL] | 12 | 
6 | CCC(=O)Oc1ccc(OC(=O)CC)c(C[C@]2(C)[C@@H](C)CC[C@]3(C)C(C)=CCC[C@@H]23)c1 | 8.8 | 
7 | CC(=O)Oc1ccc(O)cc1C[C@]1(C)[C@@H](C)CC[C@]2(C)C(C)=CCC[C@@H]12 | 9.5 | 
8 | C=C1CCC[C@H]2[C@](C)(Cc3cc(O)ccc3O)[C@@H](C)CC[C@]12C | > 32 | inhibition [4]: 35%
9 | C=C1CCC[C@H]2[C@](C)(Cc3cc(OC)ccc3O)[C@@H](C)CC[C@]12C |  | inhibition [1]: 50%
10 | C=C1CCC[C@H]2[C@](C)(Cc3cc(OC(=O)CC)ccc3OC(=O)CC)[C@@H](C)CC[C@]12C | 9.4 | 
11 | CC(=O)Oc1ccc(O)c(C[C@]2(C)[C@@H](C)CC[C@]3(C)C(C)=CCC[C@@H]23)c1 | 10 | 
12 | C=C1CCC[C@H]2[C@](C)(Cc3cc(OC(C)=O)ccc3O)[C@@H](C)CC[C@]12C | 8.6 | 
13 | C=C1CCC[C@H]2[C@](C)(Cc3cc(OC(C)=O)ccc3OC(C)=O)[C@@H](C)CC[C@]12C | 14 | 
14 | CC1=CCC[C@H]2[C@](C)(CC3=CC(=O)C=C(N)C3=O)[C@@H](C)CC[C@]12C | 18 | 
